Data as given in patent publication US6436921B1, “Carbapenem derivatives and a preparation method thereof” (Korea Institute of Science and Technology, priority 1997, dated 2002).
Converted amounts (≈) assume the structure as drawn.

Experiments:
[1] = test system: Staphylococcus aureus 503; test: Antibacterial activity test (agar dilution MIC); assay type: cell-based; settings: Staphylococcus aureus 503, agar; for MIC: read-out: Minimum inhibitory concentration
Experimental: (§1) Gram-positive Streptococcus and Staphylococcus and Gram-negative Escherichia coli, Pseudomonas, Salmonella, Klebsiella and Enterobacter were selected for the test. After the cells were diluted and cultured in agar, the compounds of the present invention were treated to obtain the minimum inhibitory concentration in the units of μg/ml.

Enterobacter cloacae P99 = test: Antibacterial activity test (agar dilution MIC); assay type: cell-based; settings: for MIC: read-out: Minimum inhibitory concentration
Experimental: as §1

Escherichia coli 1507E = test: Antibacterial activity test (agar dilution MIC); assay type: cell-based; settings: for MIC: read-out: Minimum inhibitory concentration
Experimental: as §1

Escherichia coli TEM = test: Antibacterial activity test (agar dilution MIC); assay type: cell-based; settings: for MIC: Escherichia coli, read-out: Minimum inhibitory concentration
Experimental: as §1

[2] = test system: Streptococcus pyogenes 77A; test: Antibacterial activity test (agar dilution MIC); assay type: cell-based; settings: for MIC: read-out: Minimum inhibitory concentration
Experimental: as §1

Salmonella typhimurium = test: Antibacterial activity test (agar dilution MIC); assay type: cell-based; settings: for MIC: Salmonella enterica, read-out: Minimum inhibitory concentration
Experimental: as §1

[3] = test system: Pseudomonas aeruginosa 1592E; test: Antibacterial activity test (agar dilution MIC); assay type: cell-based; settings: for MIC: read-out: Minimum inhibitory concentration
Experimental: as §1

[4] = test system: Streptococcus faecium MD8b; test: Antibacterial activity test (agar dilution MIC); assay type: cell-based; settings: for MIC: Enterococcus faecium, read-out: Minimum inhibitory concentration
Experimental: as §1

[5] = test system: Pseudomonas aeruginosa 1771; test: Antibacterial activity test (agar dilution MIC); assay type: cell-based; settings: Pseudomonas aeruginosa 1771, agar; for MIC: read-out: Minimum inhibitory concentration
Experimental: as §1

[6] = test system: Streptococcus pyogenes 308A; test: Antibacterial activity test (agar dilution MIC); assay type: cell-based; settings: for MIC: read-out: Minimum inhibitory concentration
Experimental: as §1

[7] = test system: Enterobacter cloacae 1321E; test: Antibacterial activity test (agar dilution MIC); assay type: cell-based; settings: for MIC: read-out: Minimum inhibitory concentration
Experimental: as §1

[8] = test system: Pseudomonas aeruginosa 9027; test: Antibacterial activity test (agar dilution MIC); assay type: cell-based; settings: Pseudomonas aeruginosa 9027, agar; for MIC: read-out: Minimum inhibitory concentration
Experimental: as §1

Klebsiella oxytoca 1082E = test: Antibacterial activity test (agar dilution MIC); assay type: cell-based; settings: for MIC: read-out: Minimum inhibitory concentration
Experimental: as §1

[9] = test system: Staphylococcus aureus SG511; test: Antibacterial activity test (agar dilution MIC); assay type: cell-based; settings: for MIC: read-out: Minimum inhibitory concentration
Experimental: as §1

[10] = test system: Pseudomonas aeruginosa 1771M; test: Antibacterial activity test (agar dilution MIC); assay type: cell-based; settings: Pseudomonas aeruginosa, 1771M, read-out: Minimum inhibitory concentration
Experimental: as §1

Escherichia coli DC0 = test: Antibacterial activity test (agar dilution MIC); assay type: cell-based; settings: for MIC: read-out: Minimum inhibitory concentration
Experimental: as §1

Escherichia coli 078 [11] = test: Antibacterial activity test (agar dilution MIC); assay type: cell-based; settings: Escherichia coli 078, agar; for MIC: read-out: Minimum inhibitory concentration
Experimental: as §1

[12] = test system: Staphylococcus aureus 285; test: Antibacterial activity test (agar dilution MIC); assay type: cell-based; settings: Staphylococcus aureus 285, agar; for MIC: read-out: Minimum inhibitory concentration
Experimental: as §1

[13] = test system: Klebsiella aerogenes 1522E; test: Antibacterial activity test (agar dilution MIC); assay type: cell-based; settings: for MIC: read-out: Minimum inhibitory concentration
Experimental: as §1

Escherichia coli DC2 = test: Antibacterial activity test (agar dilution MIC); assay type: cell-based
Experimental: as §1

Escherichia coli 078 [14] = test: PD50 test using mice; assay type: in vivo; set-up: PD50: unit not given beside the values
Excerpt: (§2) This means that ⅓ of the amount of the compound 10 has the same effect as meropenem.
(§3) Streptococcus pyrogenes A 77 and Escherichia coli 078 were selected as gram-positive and gram-negative strains, respectively.

[15] = test system: Streptococcus pyrogenes A 77; test: PD50 test using mice; assay type: in vivo; set-up: PD50: unit not given beside the values
Excerpt: as §2, §3

renal enzyme (DHP-I) = renal enzyme (DHP-I) (Homo sapiens, UniProt P16444); settings: FIG. 1
[16] = Bioavailability test, subcutaneous injection to mice; assay type: in vivo
[17] = target: DHP-I (renal dehydropeptidase-I) (Homo sapiens, UniProt P16444); test: in vitro
Chain of DHP-I (renal dehydropeptidase-I) (P16444 17-385): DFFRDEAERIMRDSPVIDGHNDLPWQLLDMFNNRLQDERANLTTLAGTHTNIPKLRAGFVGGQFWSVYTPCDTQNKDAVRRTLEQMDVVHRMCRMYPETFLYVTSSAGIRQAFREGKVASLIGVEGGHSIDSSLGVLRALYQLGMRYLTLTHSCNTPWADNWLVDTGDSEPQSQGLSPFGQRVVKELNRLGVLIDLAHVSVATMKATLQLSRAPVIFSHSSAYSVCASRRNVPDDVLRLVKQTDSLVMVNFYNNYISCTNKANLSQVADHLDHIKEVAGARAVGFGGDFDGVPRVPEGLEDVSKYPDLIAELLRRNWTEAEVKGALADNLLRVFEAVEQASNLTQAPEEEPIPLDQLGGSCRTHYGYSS

Chain of renal enzyme (DHP-I) (P16444 17-385): as above

`C[C@@H](O)[C@H]1C(=O)N2C(C(=O)O)=C(S[C@@H]3CN[C@H](C(=O)NCCC(N)=O)C3)[C@H](C)[C@H]12` [Compound 1] gave an MIC [1] of 0.098 µg/mL (≈ 0.23 µM), an MIC (Enterobacter cloacae P99) of 0.049 µg/mL (≈ 0.115 µM) and an MIC (Escherichia coli 1507E) of 0.025 µg/mL (≈ 0.0586 µM). For the same compound, the MIC (Escherichia coli TEM) was 0.025 µg/mL (≈ 0.0586 µM), the MIC [2] was 0.007 µg/mL (≈ 0.0164 µM) and the MIC (Salmonella typhimurium) was 0.049 µg/mL (≈ 0.115 µM). For the same compound, the MIC [3] was 0.391 µg/mL (≈ 0.917 µM), the MIC [4] was 12.5 µg/mL (≈ 29.3 µM) and the MIC [5] was 0.781 µg/mL (≈ 1.83 µM). It also gave an MIC [6] of 0.013 µg/mL (≈ 0.0305 µM), an MIC [7] of 0.025 µg/mL (≈ 0.0586 µM) and an MIC [8] of 0.391 µg/mL (≈ 0.917 µM). The MIC (Klebsiella oxytoca 1082E) was 0.098 µg/mL (≈ 0.23 µM), the MIC [9] was 0.195 µg/mL (≈ 0.457 µM) and the MIC [10] was 0.391 µg/mL (≈ 0.917 µM). For the same compound, the MIC (Escherichia coli DC0) was 0.025 µg/mL (≈ 0.0586 µM), the MIC (Escherichia coli 078 [11]) was 0.025 µg/mL (≈ 0.0586 µM) and the MIC [12] was 0.195 µg/mL (≈ 0.457 µM). The MIC [13] was 0.049 µg/mL (≈ 0.115 µM).

`CNC(=O)CCNC(=O)[C@@H]1C[C@H](SC2=C(C(=O)O)N3C(=O)[C@H]([C@@H](C)O)[C@H]3[C@H]2C)CN1` [Compound 2] showed an MIC [1] of 0.195 µg/mL (≈ 0.443 µM), an MIC (Enterobacter cloacae P99) of 0.049 µg/mL (≈ 0.111 µM) and an MIC (Escherichia coli 1507E) of 0.025 µg/mL (≈ 0.0568 µM). For the same compound, the MIC (Escherichia coli TEM) was 0.025 µg/mL (≈ 0.0568 µM), the MIC [2] was 0.013 µg/mL (≈ 0.0295 µM) and the MIC (Salmonella typhimurium) was 0.049 µg/mL (≈ 0.111 µM). It also gave an MIC [3] of 0.781 µg/mL (≈ 1.77 µM), an MIC [4] of 12.5 µg/mL (≈ 28.4 µM) and an MIC [5] of 0.781 µg/mL (≈ 1.77 µM). The MIC [6] was 0.013 µg/mL (≈ 0.0295 µM), the MIC [7] was 0.025 µg/mL (≈ 0.0568 µM) and the MIC (Escherichia coli DC2; read-out: Minimum inhibitory concentration) was 0.098 µg/mL (≈ 0.222 µM). The MIC [8] was 0.781 µg/mL (≈ 1.77 µM), the MIC (Klebsiella oxytoca 1082E) was 0.098 µg/mL (≈ 0.222 µM) and the MIC [9] was 0.391 µg/mL (≈ 0.888 µM). The MIC [10] was 0.391 µg/mL (≈ 0.888 µM), the MIC (Escherichia coli DC0) was 0.049 µg/mL (≈ 0.111 µM) and the MIC (Escherichia coli 078 [11]) was 0.049 µg/mL (≈ 0.111 µM). It also gave an MIC [12] of 0.781 µg/mL (≈ 1.77 µM) and an MIC [13] of 0.049 µg/mL (≈ 0.111 µM).

`C[C@@H](O)[C@H]1C(=O)N2C(C(=O)O)=C(S[C@@H]3CN[C@H](C(=O)NCCC(=O)NCCO)C3)[C@H](C)[C@H]12` [Compound 3] showed a Minimum inhibitory concentration [1] of 0.195 µg/mL (≈ 0.414 µM), a Minimum inhibitory concentration (Enterobacter cloacae P99) of 0.049 µg/mL (≈ 0.104 µM) and a Minimum inhibitory concentration (Escherichia coli 1507E) of 0.025 µg/mL (≈ 0.0531 µM). The Minimum inhibitory concentration (Escherichia coli TEM; Escherichia coli TEM, agar) was 0.025 µg/mL (≈ 0.0531 µM), the Minimum inhibitory concentration [2] was 0.007 µg/mL (≈ 0.0149 µM) and the Minimum inhibitory concentration (Salmonella typhimurium) was 0.049 µg/mL (≈ 0.104 µM). It also gave a Minimum inhibitory concentration [3] of 1.563 µg/mL (≈ 3.32 µM), a Minimum inhibitory concentration [4] of 12.5 µg/mL (≈ 26.6 µM) and a Minimum inhibitory concentration [5] of 1.563 µg/mL (≈ 3.32 µM). It also gave a Minimum inhibitory concentration [6] of 0.013 µg/mL (≈ 0.0276 µM), a Minimum inhibitory concentration [7] of 0.025 µg/mL (≈ 0.0531 µM) and a Minimum inhibitory concentration (Escherichia coli DC2) of 0.049 µg/mL (≈ 0.104 µM). The Minimum inhibitory concentration [8] was 1.563 µg/mL (≈ 3.32 µM), the Minimum inhibitory concentration (Klebsiella oxytoca 1082E) was 0.098 µg/mL (≈ 0.208 µM) and the Minimum inhibitory concentration [9] was 0.195 µg/mL (≈ 0.414 µM). It also gave a Minimum inhibitory concentration (Escherichia coli DC0) of 0.049 µg/mL (≈ 0.104 µM), a Minimum inhibitory concentration (Escherichia coli 078 [11]) of 0.025 µg/mL (≈ 0.0531 µM) and a Minimum inhibitory concentration [12] of 0.391 µg/mL (≈ 0.831 µM). The Minimum inhibitory concentration [13] was 0.049 µg/mL (≈ 0.104 µM).

In the case of `C[C@@H](O)[C@H]1C(=O)N2C(C(=O)O)=C(S[C@@H]3CN[C@H](C(=O)NCCS(N)(=O)=O)C3)[C@H](C)[C@H]12` [Compound 10], the PD50 (Escherichia coli 078 [14]; Escherichia coli 078) is reported as 0.47, the “times more efficient than meropenem (PD50 test)” value (Escherichia coli 078 [14]; gram-negative strain, versus meropenem) is reported as 3 times and the PD50 ([15]; Streptococcus pyrogenes A 77) is reported as 2.31. For the same compound, the “times more efficient than meropenem (PD50 test)” value ([15]; gram-positive strain, versus meropenem) was 3 times, the “stability against DHP-I (in words)” value (renal enzyme (DHP-I)) was “a little more stable than meropenem against DHP-I and markedly more stable than imipenem” and the half-life ([16]; mouse, in vivo, sc) was 19.2 ± 2.4 min. For the same compound, the AUC ([16]; mouse, in vivo, sc, AUC 0-3 hr) was 11900 ± 1130 ng·h/mL, the Cmax ([16]; mouse, in vivo, sc, read-out: Cmax) was 16000 ± 960 ng/mL and the Tmax ([16]; mouse, in vivo, sc, read-out: Tmax) was ≤ 19.8 min. For the same compound, the “times as efficient as meropenem (bioavailability, Table 4)” value ([16]; versus meropenem) was “ca. 3 times” and the half-life [17] was > 300 min.
